Results from publication PMC4992173, “Divergent synthesis and identification of the cellular targets of deoxyelephantopins” (Nature Communications, 2016).

System: Caco-2 cells
Assay: In situ global proteomics profiling of Caco-2 cells (LC-MS/MS, LFQ)
Type: cell-based, human
Conditions: for Log2 20 µM DEP/DMSO: LFQ
Description: Figure 7 Identification of PPARγ as target of deoxyelephantopin and screening of DEP derivatives as PPARγ antagonists. (a) Quantification of endogenous PPARγ enriched from Caco-2 cells using 10 μM 24c following in situ treatment with DEP (20 μM) or DMSO (normalized LFQ values±s.d. are shown; n=6). (b) Changes in expression levels of five PPARγ-dependent proteins following 24 h treatment of Caco-2 cells with DMSO, rosiglitazone (10 μM), T0070907 (50 μM) or DEP (20 μM; LFQ ratios±s.d. are shown; n=3). **P<0.005 and ***P<0.0005 by two-sided Student's t-test. (c) Gel-based competitive screening of DEP and analogues as PPARγ antagonists against recombinant human enzyme (top). hPPARγ was treated with each compound (20 μM) for 1 h followed by treatment with 24c-Cy3 (10 μM) as probe. Quantification of fluorescence intensity in the competitive screening for PPARγ antagonists (bottom; values±s.d. are shown; n=3).
Caco-2 cells were treated with DMSO, PPARγ agonist rosiglitazone, antagonist T0070907 or DEP for 24 h, the cells were collected and the proteomes were comparatively analysed by LC–MS/MS. […] Furthermore, the list of 43 dysregulated proteins was analysed and classified using the GOrilla pathway analysis tool (Supplementary Fig. 15). […]
In situ global proteomics profiling using LC-MS/MS. Caco- ’ cells/mL) in a 6-well plate, allowed to grow to confluence and to differentiate for 28 days. The wells were washed one time with PBS and treated with either DMSO, 10 µM rosiglitazone, 50 µM T0070907 or 20 µM DEP for 24 hours. Cells were washed two times with PBS and lysates were prepared. Samples (30 µg) were denatured with 6 M urea in 50 mM NH4HCO3, reduced […]
dark. Samples were diluted to 2 M urea with 50 mM NH4HCO3, and digested with trypsin ([…] for 12 hours at 37 °C. Samples were acidified to a final concentration of 5% acetic acid, desalted over a self-packed C18 spin column and […]
dried. […]
LC-MS/MS analysis. Peptides were resuspended in water with 0.1% formic acid (FA) and analyzed using Proxeon EASY-nLC 1000 nano-UHPLC coupled to QExactive Plus Quadrupole-Orbitrap mass spectrometer (Thermo Scientific). The chromatography column […]
H2O (Buffer A) and 0.1% FA in MeCN (Buffer B). Peptides were eluted into the mass spectrometer at a flow rate of 300 nL/min. over a 240 min. linear gradient (3-35% Buffer B) at 50 °C. Data was acquired in data-dependent mode (top- N = ’ […]
and isotope exclusion was enabled.
MaxQuant analysis. The MS data was analyzed with MaxQuant (V1.5.2.8) and searched against the human proteome (Uniprot, 89,649 entries) and a common list of contaminants (included in MaxQuant). The first peptide search tolerance was set to 20 ppm, 10 ppm was used for the main peptide search and fragment mass tolerance was set to 0.02 Da. The false discovery rate for peptides, proteins and sites identification was set to 1%. The minimum peptide length was set to 6 amino acids and peptide re-quantification, label-free quantification (MaxLFQ) and “ ” were enabled. The minimal number of peptides per protein was set to two. Oxidized methionines and N-terminal acetylation were searched as variable modifications and carbamidomethylation of cysteines was searched as a fixed modification. For SILAC experiments 13C6 L-lysine and 13C6 15N4 L-arginine were set as heavy isotope labels and 12C6 L-lysine and 12C6 14N4 L-arginine as light isotope labels.
19 d k g h ARγ. 19a was covalently docked to the crystal structure of human γ ZU 190 using the GOLD suite (V5.3, CCDC). The default GOLD fitness function was used to determine the best binding configuration. The distance for hydrogen bonding was set to 3 Å.
IAA competition of 23c, 24c and DEP h ARγ. γ
(500 ng in 9 µL PBS) was treated with either 100 µM DEP, 23c, 24c or DMSO (1 µL of 10x stock in DMSO) for one hour. Samples were denatured with 6 M urea in 50 mM NH4HCO3, […]
in the dark. Samples were diluted to 2 M urea with 50 mM NH4HCO3, and digested with trypsin […]

C=C(C)C(=O)O[C@H]1CC2=C[C@@H](C/C(C)=C/[C@H]3OC(=O)C(=C)[C@H]13)OC2=O [deoxyelephantopin]
mode of action on PPARγ in cells (20 µM, 24 h, compared with rosiglitazone and T0070907): antagonist of PPARγ
Log2 20 µM DEP/DMSO (protein ALDH3B1, 24 h): -0.67
Log2 20 µM DEP/DMSO (protein ARHGAP17, 24 h): -0.97
Log2 20 µM DEP/DMSO (protein ARMCX3, 24 h): -0.92
Log2 20 µM DEP/DMSO (protein COL4A3BP, 24 h): -0.76
Log2 20 µM DEP/DMSO (protein CROT, 24 h): -0.68
Log2 20 µM DEP/DMSO (protein CTBP2, 24 h): 0.72
Log2 20 µM DEP/DMSO (protein DDX21, 24 h): 0.82
Log2 20 µM DEP/DMSO (protein FNTA, 24 h): -0.62
Log2 20 µM DEP/DMSO (protein GID8, 24 h): 0.68
Log2 20 µM DEP/DMSO (protein GIPC2, 24 h): -0.69
Log2 20 µM DEP/DMSO (protein GIT2, 24 h): -0.92
Log2 20 µM DEP/DMSO (protein GSTA1, 24 h): -0.81
Log2 20 µM DEP/DMSO (protein GSTA2, 24 h): -0.87
Log2 20 µM DEP/DMSO (protein GSTM3, 24 h): -0.84
Log2 20 µM DEP/DMSO (protein HIGD1A, 24 h): 0.69
Log2 20 µM DEP/DMSO (protein IREB2, 24 h): 0.65
Log2 20 µM DEP/DMSO (protein ITGB4, 24 h): 0.92
Log2 20 µM DEP/DMSO (protein LDHD, 24 h): -0.60
Log2 20 µM DEP/DMSO (protein LDLR, 24 h): 1.72
Log2 20 µM DEP/DMSO (protein LIPA, 24 h): -0.68
Log2 20 µM DEP/DMSO (protein MARCH5, 24 h): 1.85
Log2 20 µM DEP/DMSO (protein MGMT, 24 h): -0.81
Log2 20 µM DEP/DMSO (protein MYO15B, 24 h): -1.00
Log2 20 µM DEP/DMSO (protein NOP9, 24 h): 1.57
Log2 20 µM DEP/DMSO (protein OAS1, 24 h): 1.10
Log2 20 µM DEP/DMSO (protein OGDHL, 24 h): -0.98
Log2 20 µM DEP/DMSO (protein PANK4, 24 h): -0.81
Log2 20 µM DEP/DMSO (protein PHPT1, 24 h): -0.79
Log2 20 µM DEP/DMSO (protein PSIP1, 24 h): 0.76
Log2 20 µM DEP/DMSO (protein RAB5B, 24 h): 0.79
Log2 20 µM DEP/DMSO (protein RBP4, 24 h): -1.03
Log2 20 µM DEP/DMSO (protein RRS1, 24 h): 0.65
Log2 20 µM DEP/DMSO (protein SAMHD1, 24 h): -0.97
Log2 20 µM DEP/DMSO (protein SCAMP3, 24 h): 0.63
Log2 20 µM DEP/DMSO (protein SETDB1, 24 h): 0.81
Log2 20 µM DEP/DMSO (protein SLC26A3, 24 h): -0.98
Log2 20 µM DEP/DMSO (protein SLC39A14, 24 h): -0.74
Log2 20 µM DEP/DMSO (protein STK4, 24 h): -0.74
Log2 20 µM DEP/DMSO (protein SURF6, 24 h): 1.30
Log2 20 µM DEP/DMSO (protein TGOLN2, 24 h): 1.03
Log2 20 µM DEP/DMSO (protein TPD52L1, 24 h): -0.71
Log2 20 µM DEP/DMSO (protein TTR, 24 h): -0.97
Log2 20 µM DEP/DMSO (protein VPS52, 24 h): 0.63
